We go through two compounds from patent US6815183B1, “Plasmodium sp. chitinase” (The Board of Regents of the University of Texas System, priority 1999, dated 2004).

Each structure is given as a SMILES string. Where two headings read alike, the source gives them in different places.

For assay [1], the system named is Endo Lys-C-treated rPgCHT1. Nature of the assay: Kinetics of Endo Lys-C-treated rPgCHT1-NT1 on 4-MU substrates (Lineweaver-Burk plot). As to conditions: pH 6.0.
Experimental: Analysis of Chitinase Activity. Chitinase activity of both native and recombinant chitinases was assessed in three ways. […] Second, microfluorimetry (HTS7000, Perkin-Elmer, excitation 360 nm and emission 465 nm) was used to measure the hydrolysis of 4-MU GlcNAc, 4-MU GlcNAc2, 4-MU GlcNAc3, and 4-MU GlcNAc4 (Sigma) as described previously. Initial enzyme reaction rates were measured. Enzymatic activity is reported as relative fluorescence units or fold change.
The target of assay [2] is peak 1 of chitinase activity (native PgCHT1) (Plasmodium gallinaceum, UniProt Q9NJX9). The class given is biochemical.
The next assay addresses rPgCHT1 (Plasmodium gallinaceum, UniProt Q9NJX9). Nature of the assay: biochemical.
The target in assay [3] is peak 2 of chitinase activity (PgCHT2) (Plasmodium gallinaceum, UniProt A0A1J1H1G1). The format is biochemical.

The Km is the substrate concentration at which the rate is half of its maximum. What is called IC50 is the concentration at which inhibition is half-maximal.

peak 2 of chitinase activity (PgCHT2), sequence (A0A1J1H1G1 entry or part of it): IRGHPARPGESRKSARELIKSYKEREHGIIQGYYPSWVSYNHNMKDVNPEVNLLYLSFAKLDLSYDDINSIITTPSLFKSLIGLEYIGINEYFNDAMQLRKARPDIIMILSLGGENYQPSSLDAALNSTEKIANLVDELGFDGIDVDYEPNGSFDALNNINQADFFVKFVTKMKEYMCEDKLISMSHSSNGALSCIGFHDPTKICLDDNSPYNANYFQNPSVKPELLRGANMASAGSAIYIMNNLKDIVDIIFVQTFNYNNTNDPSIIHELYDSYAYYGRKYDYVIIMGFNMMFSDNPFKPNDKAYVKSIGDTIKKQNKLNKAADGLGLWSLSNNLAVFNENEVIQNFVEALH
rPgCHT1, sequence (Q9NJX9 entry or part of it): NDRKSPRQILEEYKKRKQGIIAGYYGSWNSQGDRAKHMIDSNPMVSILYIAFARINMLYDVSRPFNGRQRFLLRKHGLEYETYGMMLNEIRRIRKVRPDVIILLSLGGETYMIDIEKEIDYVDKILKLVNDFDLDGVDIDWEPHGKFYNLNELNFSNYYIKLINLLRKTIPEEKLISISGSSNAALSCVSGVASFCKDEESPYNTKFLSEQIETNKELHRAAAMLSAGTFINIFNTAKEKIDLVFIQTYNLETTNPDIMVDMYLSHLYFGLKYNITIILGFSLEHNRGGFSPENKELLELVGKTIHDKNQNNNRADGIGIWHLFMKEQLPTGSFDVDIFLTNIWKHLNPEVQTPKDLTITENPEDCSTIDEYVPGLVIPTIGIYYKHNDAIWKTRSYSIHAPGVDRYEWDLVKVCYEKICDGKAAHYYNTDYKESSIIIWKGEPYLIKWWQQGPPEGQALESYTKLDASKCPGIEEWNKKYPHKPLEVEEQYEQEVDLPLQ
peak 1 of chitinase activity (native PgCHT1), sequence (Q9NJX9 entry or part of it): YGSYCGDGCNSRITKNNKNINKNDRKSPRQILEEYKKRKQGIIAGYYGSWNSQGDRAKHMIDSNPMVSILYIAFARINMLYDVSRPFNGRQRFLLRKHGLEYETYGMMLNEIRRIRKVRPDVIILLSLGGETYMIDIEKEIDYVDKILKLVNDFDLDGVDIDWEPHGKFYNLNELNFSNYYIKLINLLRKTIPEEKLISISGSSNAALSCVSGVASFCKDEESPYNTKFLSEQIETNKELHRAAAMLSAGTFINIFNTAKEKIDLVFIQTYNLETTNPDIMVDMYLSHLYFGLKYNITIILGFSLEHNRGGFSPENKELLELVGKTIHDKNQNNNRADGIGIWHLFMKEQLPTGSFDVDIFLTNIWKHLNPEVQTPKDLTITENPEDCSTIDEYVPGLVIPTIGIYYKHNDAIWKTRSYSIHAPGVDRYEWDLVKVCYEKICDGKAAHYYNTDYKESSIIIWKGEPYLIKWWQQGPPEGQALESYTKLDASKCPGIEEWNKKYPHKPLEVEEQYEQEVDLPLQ

As to `CC(=O)N[C@H]1[C@H](Oc2ccc3c(C)cc(=O)oc3c2)O[C@H](CO)[C@@H](O[C@@H]2O[C@H](CO)[C@@H](O[C@@H]3O[C@H](CO)[C@@H](O)[C@H](O)[C@H]3NC(C)=O)[C@H](O)[C@H]2NC(C)=O)[C@@H]1O` [4-MU GlcNAc3, 4-methylumbelliferyl-N,N′,N″-β-D-triacetylchitotrioside], the Michaelis-Menten constant (Km) in assay [1] is 140 µM.

Regarding `CC(=O)N[C@H]1[C@H](O[C@H]2[C@@H](O)[C@@H](NC(C)=O)[C@H](O[C@H]3[C@H](O)[C@H]4N=C(N(C)C)O[C@H]4[C@@H]3CO)O[C@@H]2CO)O[C@H](CO)[C@@H](O)[C@H]1O` [allosamidin], the half-inhibitory concentration (IC50) in assay [2] was determined as 7 µM; against rPgCHT1, 12 µM; in assay [3] (read-out: IC50 of PgCHT2) it was 0.3 µM; in assay [3] (read-out: IC50 value for peak 2), 0.3 µM.
